The values below come from patent US10391070B2, “Compositions and methods for treating neurological diseases or injury” (MUSC FOUNDATION FOR RESEARCH DEVELOPMENT, priority 2012, dated 2019).

In data set [1] the test system is HT22 cells. As to the kind of experiment: In vitro neuroprotective activity against glutamate-induced cell death (MTS cell viability). The format is cell-based, mouse. To be noted: HT22 cells; for EC50: 24 hrs, MTS, concentration producing 50% protection, read-out: Protection PC50. Here is the method:
(§1) The HT22 neuronal cell line is a subclone of HT4, derived from the mouse hippocampus (Morimoto and Koshland, 1990). […] HT22 cells were used. The cells were grown in Dulbecco's Modified Eagle's medium (DMEM/high glucose) supplemented with 10% fetal bovine serum (Hyclone) and 5 mL Antibiotic-Antimycotic (Amphotericin B, Penicillin, and Streptomycin; Invitrogen) at 37° C. in 5% CO2.
(§2) Cell viability was assessed by the ability of the viable cells to metabolize 3-(4,5-dimethylthiazol-2-yl)-5-(3-carboxymethoxyphenyl)-2(4-sulfophenyl)2-H-tetrazolium, inner salt (MTS), as described previously (Cory et al., 1991). The metabolism of tetrazolium salts is often used to measure cellular proliferation, but in the system used here, it has been previously shown to correlate well with cell viability as determined by trypan blue exclusion and colony-forming assays (Davis and Maher, 1994). Briefly, HT-22 cells were seeded onto 96-well plates at 5.0×10^3 cells per well in 75 μL of medium and maintained at 37° C. in 5% CO2 overnight prior to the initiation of experimental treatments. For glutamate toxicity testing, cells were subsequently treated with 25 μL of medium containing glutamate (monosodium glutamate, Sigma, 1 M stock concentration in media, to achieve a final concentration of 10 mM) plus inhibitors (stock in DMSO) and maintained at 37° C. in 5% CO2. For t-BuOOH toxicity testing, cells were subsequently treated with 25 μL of medium containing t-BuOOH (Sigma, 10 mM stock concentration, to achieve a final concentration of 50 μM) plus inhibitors (stock in DMSO) and maintained at 37° C. in 5% CO2 for 3 hours, after which the media was removed, cells washed gently with HBSS, the media replaced with standard culture media, and the cells returned to incubation at 37° C. in 5% CO2. For both glutamate and t-BuOOH treatments, 10 μl of MTS solution was added to each well 24 hrs after initial treatment, and the cells were maintained in growth medium for 2 h at 37° C. Absorbance at 490 nm was subsequently measured by a SpectraMax 190 plate reader (Molecular Devices). The growth medium without cells in the presence of MTS solution was used as solution background and untreated cells were considered the controls. Cell viability was calculated as a percentage compared with untreated controls. EC50 determinations were based on 12-point titrations using GraphPad Prism, and each experiment was repeated at least four times. Morphology of HT22 cells following treatments was determined by phase-contrast microscopy. Digital images of cells grown on cell culture plates were captured at 10× magnification.
The neuroprotective properties of VK and its derivatives were estimated through their protective effects against cell death in mouse neuronal HT22 cells induced by exposure to high levels of glutamate, which recapitulates a hallmark of the extracellular environment found in several neurodegenerative diseases and CNS injuries and is a well established model of neuronal oxidative stress. This investigation began by comparing the relative abilities of the two predominant naturally occurring forms of VK, VK1 and VK2, to prevent oxidative cell death. […] Several 1,4-naphthoquinones with various substitutions at the 2′ and 3′ positions were tested to determine the minimum structural requirement of the system and what the optimum scaffold for future developmental efforts and biological validation would be (FIG. 1B and Table 1). […] Substitution by a single methyl group at the 2′ position (VK3) improves the compound's ability to protect against cell death. Various other simple substituents at the 2′ and 3′ positions give the naphthoquinone structure the ability to prevent oxidative cell death at nanomolar concentrations (Table 1 and FIG. 16).

Data set [2] deals with HT22 cells. The data set can be described thus: In vitro neurotoxicity without glutamate (MTS cell viability). The format is cell-based, mouse. To be noted: for Safety Index TC50/PC50: HT22 cells. The procedure: as §1, §2
The nature of data set [3]: Mouse neurotoxicity (rotorod). The class given is in vivo. The settings on record: mice, 100 mg/kg i.p. The procedure: Using a 96-well plate, one zebrafish larva (7 dpf) was placed in each well in 100 μL of tank water. 100 μL of each compound was then added to each well for 12 animals (one row) for a final volume of 200 μL. One row of zebrafish larvae was used as DMSO only controls. […] Toxicity was also measured in the mouse model by the NIH Anticonvulsant Screening Program at the National Institute of Neurological Disorders and Stroke (Stables and Kupferberg, 1997), according to the established NIH experimental procedures. Compounds were delivered into mice by intraperitoneal (i.p.) injection at a dose of 100 mg/kg in sterile 5% DMSO, 95% Neobee (Josey et al., 2013). Acute toxicity was assessed by monitoring the animals for impaired neuromuscular function by placing treated mice on a rod rotating at 6 rpm. […].
(In general: Falling from the rotarod earlier than controls is read as motor impairment.)

Data set [4] relates to HT22 cells. The data set can be described thus: Glutathione determination in glutamate-treated cells. The class given is cell-based, mouse. The settings on record: HT22, 10 mM glutamate 8 hrs, 500 nM. Here is the method: The content of total glutathione (reduced and oxidized) in the supernatant of cell homogenate was measured using the glutathione assay kit (Cayman Chemical) in microtiter plate assay, which utilizes an enzymatic recycling method, using glutathione reductase, for the quantification of glutathione. The sulfhydryl group of glutathione reacted with 5,5′-dithiobis-2-nitrobenzoic acid (DTNB) and produced a yellow-colored 5-thio-2-nitrobenzoic acid (TNB), which was measured at 405 nm.

For a further data set, the system named is Drp1. The data set can be described thus: Western blot, phosphorylation of Drp1 (Ser637). The class given is cell-based, mouse. The settings on record: HT22, 10 mM glutamate 16 hrs. The procedure:
HT-22 cells were cultured and treated as described above for the qRT-PCR experiments. After 16 hrs, the media was collected and the cells harvested by trypsanization. After centrifugation, pelleted cells were washed with cold HBSS Ca^2+/Mg^2+ Free, followed by lysis with a low salt lysis buffer (50 mM Tris-HCl, pH 7.4, 150 mM NaCl, 10% glycerol, 0.5 Triton X-100, 1× protease and phosphatase inhibitor cocktail) for 30 min, followed by a 15-s sonication pulse at 30 W. For Western blot analysis, the cell lysates were denatured with LDS loading buffer (Invitrogen) and run on Nupage 4-12% Tris-glysine gradient gels (Invitrogen) after centrifugation. Phosphorylated Drp1 (Ser637) (Cell Signaling) and total Drp1 (C5) (Santa Cruz), PGAM5 (K16) (Santa Cruz Biotechnology), Actin (Sigma-Aldritch) and alpha-Tubulin (Santa Cruz Biotechnology) were assessed with primary antibody, followed by rabbit, mouse, or goat IgG-HRP secondary antibody. The blot was developed using Pierce Thermo Dura-ECL reagent (Thermo-Fisher) and visualized using an ImageQuant LAS 4000 (GE). Digital images of membranes were quantified by computer-assisted densitometry using Image J 1.42q (National Institutes of Health, MD).
(In general: In western blotting, separated proteins are transferred to a membrane and probed.)

Where [5] appears, read: Mus musculus, HT-22, 10 mM glutamate.
The mark [6] stands for this setting: HT22 cells without glutamate, 24 hrs, MTS, concentration producing 50% toxicity, read-out: Toxicity TC50.

Like-named read-outs stand apart in the source and are kept apart here.

For the compound `C#CCNC1=CC(=O)c2ccccc2C1=O` [Compound 2h, 2-(prop-2-yn-1-ylamino)naphthalene-1,4-dione], the EC50 with HT22 cells [1] (setting [5]) turned out to be 120 nM. The “Safety Index TC50/PC50” value in the data set on HT22 cells [2] is 442. Moreover, in the data set with HT22 cells [2] (setting [6]), the CC50 was determined as 53000 nM. In data set [3], the “animals displaying toxic effects/animals tested, 0.25 hr” value is listed as 0/12; the “animals displaying toxic effects/animals tested, 0.5 hr” value was 1/12; the “animals displaying toxic effects/animals tested, 1.0 hr” value was 0/12; the “animals displaying toxic effects/animals tested, 2.0 hr” value is 0/12. In addition, in data set [3], the “animals displaying toxic effects/animals tested, 4.0 hr” value is reported as 0/12.

Turning to `O=C1C=C(NCc2ccccc2)C(=O)c2ccccc21` [Compound 2j, 2-(benzylamino)naphthalene-1,4-dione], the EC50 with HT22 cells [1] (setting [5]) worked out at 88 nM. In addition, in the data set with HT22 cells [2], the “Safety Index TC50/PC50” value was 1,136. In addition, in the data set on HT22 cells [2] (setting [6]), the CC50 is over 100000 nM. In addition, the “depletion of total cellular GSH” value in the data set with HT22 cells [4] is on record as “does not prevent GSH”. Also, the “phosphorylation of Drp1 at Ser 637” value in the data set on Drp1 (250 and 125 nM) is on record as “the phosphorylation state is maintained”. In data set [3], the “animals displaying toxic effects/animals tested, 0.25 hr” value was 0/12; the “animals displaying toxic effects/animals tested, 0.5 hr” value is reported as 0/12; the “animals displaying toxic effects/animals tested, 1.0 hr” value is listed as 0/12; the “animals displaying toxic effects/animals tested, 2.0 hr” value is listed as 0/12. Further, in data set [3], the “animals displaying toxic effects/animals tested, 4.0 hr” value is listed as 0/12.

Take `O=C1C=C(NCc2cccc(Cl)c2)C(=O)c2ccccc21` [Compound 2q, 2-((3-chlorobenzyl)amino)naphthalene-1,4-dione]: in the data set with HT22 cells [1] (10 mM glutamate), the “fold increase in PC50 potency over VK2” value is “more than 10 fold” and the “fold increase in PC50 potency over compound 2j” value is about 3 fold. In the data set on HT22 cells [1] (setting [5]), the EC50 was found to be 31 nM. The “Safety Index TC50/PC50” value in the data set with HT22 cells [2] is 3,226. In addition, the CC50 in the data set on HT22 cells [2] (setting [6]) is over 100000 nM. Also, the “depletion of total cellular GSH” value in the data set on HT22 cells [4] was “does not prevent GSH”. Also, the “phosphorylation of Drp1 at Ser 637” value in the data set on Drp1 (250 and 125 nM) is given as “the phosphorylation state is maintained”. In data set [3], the “animals displaying toxic effects/animals tested, 0.25 hr” value is given as 0/12; the “animals displaying toxic effects/animals tested, 0.5 hr” value was 0/12; the “animals displaying toxic effects/animals tested, 1.0 hr” value was 0/12; the “animals displaying toxic effects/animals tested, 2.0 hr” value is 0/12. The “animals displaying toxic effects/animals tested, 4.0 hr” value in data set [3] is recorded as 0/12.

Consider `CC1=CC(=O)c2ccccc2C1=O` [VK3, menadione, reference compound], for which, in the data set on HT22 cells [1] (10 mM glutamate), the EC50 was determined as 797 nM. Besides, the “Safety Index TC50/PC50” value with HT22 cells [2] stood at 24. The CC50 in the data set with HT22 cells [2] (setting [6]) turned out to be 19000 nM.

As to menaquinones [VK2, reference compound], the EC50 in the data set with HT22 cells [1] (10 mM glutamate) turned out to be 432 nM. Further, the “protection from oxidative cell death” value in the data set on HT22 cells [1] (glutamate) is reported as “rescued HT22 cells from oxidative cell death”. Besides, in the data set with HT22 cells [2], the CC50 is over 100000 nM, the cellular toxicity result is “neither exhibited any signs of cellular toxicity” and the “Safety Index TC50/PC50” value is on record as 231. For the same compound, the “depletion of total cellular GSH” value in the data set on HT22 cells [4] is “does not prevent GSH”. In the data set with Drp1 (250 nM), the “phosphorylation of Drp1 at Ser 637” value was “less effective”. In addition, in the data set on Drp1 (500 nM), the “phosphorylation of Drp1 at Ser 637” value is given as “the phosphorylation state is maintained”.
